Laboratory results as given in patent US20250388553A1 (Incyte Corporation, priority 2018, published 2025).
Where a name gives a salt, the structure may show the parent alone.

Tests used:
[1] = biological target: PI3Kδ (p1106/p85a) Recombinant Human Protein (Homo sapiens (Human), UniProt O00329); experiment: PI3Kδ scintillation proximity assay; type: biochemical; details: scintillation proximity assay, recombinant human PI3Kδ
Source text: Example C. PI3Kδ Scintillation Proximity Assay
(§1) Materials: [γ-^33P]ATP (10 mCi/mL) and Wheat Germ Agglutinin (WGA) YSi SPA Scintillation Beads was purchased from Perkin Elmer (Waltham, MA). Lipid kinase substrate, D-myo-Phosphatidylinositol 4,5-bisphosphate (PtdIns(4,5)P2)D (+)-sn-1,2-di-O-octanoylglyceryl, 3-O-phospho linked (PIP2), CAS 204858-53-7, was purchased from Echelon Biosciences (Salt Lake City, UT). PI3Kδ (p1106/p85a) Recombinant Human Protein was purchased from Eurofins (St Charles, MO). ATP, MgCl2, DTT, EDTA, MOPS and CHAPS were purchased from Sigma Aldrich (St. Louis, MO).
(§2) The kinase reaction was conducted in polystyrene 384-well Greiner Bio-one white plate from Thermo Fisher Scientific in a final volume of 25 μL. Inhibitors were first diluted serially in DMSO and added to the plate wells before the addition of other reaction components. The final concentration of DMSO in the assay was 2%. The PI3Kδ assay was carried out at room temperature in 20 mM MOPS, pH 6.7, 10 mM MgCl2, 5 mM DTT and CHAPS 0.03%. Reactions were initiated by the addition of ATP, the final reaction mixture consisted of 20 µM […], 0.5 μCi [γ-^33P]ATP, 3.4 nM PI3Kδ. Reactions were incubated for 120 min and terminated by the addition of 40 μL SPA beads suspended in quench buffer: 163 mM potassium phosphate pH 7.8, 20% glycerol, 25 mM EDTA. The final concentration of SPA beads is 1.0 mg/mL. After the plate sealing, plates were shaken overnight at room temperature and centrifuged at 1500 rpm for 10 min, the radioactivity of the product was determined by scintillation counting on Topcount (PerkinElmer). IC50 determination was performed by fitting the curve of percent of the solvent control activity versus the log of the inhibitor concentration using the GraphPad Prism 6.0 software.
(§3) The compounds of the Examples were tested in the assays described in Examples A, B and C and found to have the IC50s are shown in Tables A1, A2, A3 and A4.

[2] = biological target: PI3Kγ (p110γ) Recombinant Human Protein (Homo sapiens (Human), UniProt P48736); experiment: PI3K-γ scintillation proximity assay; type: biochemical; details: Table A1; scintillation proximity assay, recombinant human p110γ
Source text: Example B. PI3K-γ Scintillation Proximity Assay
as §1, with “PI3Kγ (p110γ)” for “PI3Kδ (p1106/p85a)”, “Life technology (Grand Island, NY).” for “Eurofins (St Charles, MO).”
as §2, with “[…].” for “μL.”, “PI3Kγ” for “PI3Kδ”, “13” for “3.4”, “PI3Kγ.” for “PI3Kδ.”, “(Perkin-Elmer).” for “(PerkinElmer).”
as §3

Sequence of PI3Kδ (p1106/p85a) Recombinant Human Protein (O00329 whole entry): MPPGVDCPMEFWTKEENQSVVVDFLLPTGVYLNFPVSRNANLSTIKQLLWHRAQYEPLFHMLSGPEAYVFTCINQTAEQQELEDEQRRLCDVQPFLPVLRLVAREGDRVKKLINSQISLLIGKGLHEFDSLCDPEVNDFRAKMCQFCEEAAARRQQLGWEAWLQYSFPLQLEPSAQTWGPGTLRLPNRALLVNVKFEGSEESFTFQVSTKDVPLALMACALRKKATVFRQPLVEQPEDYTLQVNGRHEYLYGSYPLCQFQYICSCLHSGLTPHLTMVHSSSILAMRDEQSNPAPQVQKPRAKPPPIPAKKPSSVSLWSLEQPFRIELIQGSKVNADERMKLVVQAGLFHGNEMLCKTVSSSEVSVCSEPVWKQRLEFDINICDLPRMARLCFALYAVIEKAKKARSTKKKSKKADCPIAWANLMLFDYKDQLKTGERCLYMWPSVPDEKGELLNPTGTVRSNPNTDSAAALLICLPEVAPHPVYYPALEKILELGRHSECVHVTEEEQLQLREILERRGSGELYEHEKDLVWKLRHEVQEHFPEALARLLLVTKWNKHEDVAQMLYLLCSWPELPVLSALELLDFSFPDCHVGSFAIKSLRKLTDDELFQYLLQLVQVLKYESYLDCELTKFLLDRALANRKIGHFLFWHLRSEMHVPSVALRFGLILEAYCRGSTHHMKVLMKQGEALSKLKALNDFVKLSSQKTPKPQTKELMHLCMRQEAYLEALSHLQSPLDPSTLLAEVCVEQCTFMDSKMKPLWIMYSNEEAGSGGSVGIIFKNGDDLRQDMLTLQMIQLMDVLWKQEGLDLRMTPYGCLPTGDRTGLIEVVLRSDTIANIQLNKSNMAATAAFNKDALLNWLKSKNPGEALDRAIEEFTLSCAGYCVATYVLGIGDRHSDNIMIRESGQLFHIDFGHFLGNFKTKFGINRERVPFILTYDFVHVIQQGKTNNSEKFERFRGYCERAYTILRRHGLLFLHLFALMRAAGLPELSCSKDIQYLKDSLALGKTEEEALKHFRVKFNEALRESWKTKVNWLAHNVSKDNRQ
Sequence of PI3Kδ (p1106/p85a) Recombinant Human Protein (P27986 whole entry partner): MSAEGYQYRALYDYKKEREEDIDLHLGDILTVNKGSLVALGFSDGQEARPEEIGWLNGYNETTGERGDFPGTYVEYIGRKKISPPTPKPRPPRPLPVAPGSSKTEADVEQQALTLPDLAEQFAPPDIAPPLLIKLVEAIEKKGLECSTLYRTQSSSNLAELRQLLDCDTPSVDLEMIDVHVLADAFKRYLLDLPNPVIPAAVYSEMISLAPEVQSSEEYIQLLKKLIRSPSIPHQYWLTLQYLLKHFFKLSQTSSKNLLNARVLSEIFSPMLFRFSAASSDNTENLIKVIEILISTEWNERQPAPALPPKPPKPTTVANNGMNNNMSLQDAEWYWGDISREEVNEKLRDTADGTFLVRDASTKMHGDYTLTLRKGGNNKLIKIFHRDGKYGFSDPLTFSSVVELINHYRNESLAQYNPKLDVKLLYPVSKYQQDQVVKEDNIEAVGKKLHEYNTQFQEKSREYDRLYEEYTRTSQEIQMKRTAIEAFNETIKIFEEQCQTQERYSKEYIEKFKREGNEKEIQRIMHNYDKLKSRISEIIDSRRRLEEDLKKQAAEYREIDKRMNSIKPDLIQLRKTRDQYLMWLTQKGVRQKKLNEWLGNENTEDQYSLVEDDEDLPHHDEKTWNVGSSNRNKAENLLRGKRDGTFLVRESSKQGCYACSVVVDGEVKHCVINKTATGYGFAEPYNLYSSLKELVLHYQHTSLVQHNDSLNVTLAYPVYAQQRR
Sequence of PI3Kγ (p110γ) Recombinant Human Protein (P48736 whole entry): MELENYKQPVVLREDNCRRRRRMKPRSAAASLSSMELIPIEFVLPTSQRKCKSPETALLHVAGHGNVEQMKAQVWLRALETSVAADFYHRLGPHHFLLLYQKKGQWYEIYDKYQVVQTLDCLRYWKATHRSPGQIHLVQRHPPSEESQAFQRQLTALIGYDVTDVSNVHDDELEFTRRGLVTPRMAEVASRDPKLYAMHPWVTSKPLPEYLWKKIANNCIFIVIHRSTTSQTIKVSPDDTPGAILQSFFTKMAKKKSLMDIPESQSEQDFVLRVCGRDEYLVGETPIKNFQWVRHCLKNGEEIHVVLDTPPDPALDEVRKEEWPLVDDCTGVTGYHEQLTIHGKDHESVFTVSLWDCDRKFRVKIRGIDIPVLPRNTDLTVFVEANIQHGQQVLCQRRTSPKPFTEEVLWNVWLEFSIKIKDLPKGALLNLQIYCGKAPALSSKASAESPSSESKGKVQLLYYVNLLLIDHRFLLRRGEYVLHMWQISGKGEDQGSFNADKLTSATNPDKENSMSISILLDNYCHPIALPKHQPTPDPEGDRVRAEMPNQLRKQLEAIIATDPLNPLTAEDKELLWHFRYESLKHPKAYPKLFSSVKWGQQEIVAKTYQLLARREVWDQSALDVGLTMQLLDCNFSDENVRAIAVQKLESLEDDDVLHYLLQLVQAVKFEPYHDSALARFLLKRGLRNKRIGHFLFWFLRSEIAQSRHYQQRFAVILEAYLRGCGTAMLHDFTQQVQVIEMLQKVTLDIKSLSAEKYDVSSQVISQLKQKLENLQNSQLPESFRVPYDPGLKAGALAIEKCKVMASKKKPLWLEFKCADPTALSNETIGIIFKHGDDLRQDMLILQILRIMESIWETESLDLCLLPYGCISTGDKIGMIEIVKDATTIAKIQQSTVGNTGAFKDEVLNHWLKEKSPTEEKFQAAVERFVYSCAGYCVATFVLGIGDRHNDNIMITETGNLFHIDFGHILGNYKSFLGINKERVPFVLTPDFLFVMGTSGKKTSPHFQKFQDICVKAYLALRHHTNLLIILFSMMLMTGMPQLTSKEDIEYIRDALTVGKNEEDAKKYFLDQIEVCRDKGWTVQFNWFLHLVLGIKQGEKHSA

IC50 ([1]; Table A1) [nM]	IC50 [2] [nM]	IC50 ([1]; Table A4) [nM]	SMILES
–	–	100 to 500	Cc1ccc(C(O)(C(N)=O)C(F)(F)F)cc1-c1cnc(N)c(C2CC(C(=O)NC(C)C)C2)n1 (single isomer, unassigned) [Example 111, 3-(3-Amino-6-(5-(3-amino-1,1,1-trifluoro-2-hydroxy-3-oxopropan-2-yl)-2-methylphenyl)pyrazin-2-yl)-N-isopropylcyclobutane-1-carboxamide]
< 100	< 100	–	Cc1ccc(C(O)(C(N)=O)C(F)(F)F)cc1-c1cnc(N)c(C(=O)NC2CCC(F)(F)CC2)n1 (stereo not shown) [Example 6, 3-amino-6-(5-(3-amino-1,1,1-trifluoro-2-hydroxy-3-oxopropan-2-yl)-2-methylphenyl)-N-(4,4-difluorocyclohexyl)pyrazine-2-carboxamide trifluoroacetate]
< 100	< 100	–	CCNC(=O)c1nc(-c2cc(C(O)(C(N)=O)C(F)(F)F)ccc2C)cnc1N (stereo not shown) [Example 7, 3-Amino-6-(5-(3-amino-1,1,1-trifluoro-2-hydroxy-3-oxopropan-2-yl)-2-methylphenyl)-N-ethylpyrazine-2-carboxamide trifluoroacetate]

Second part, the molecule before the results:

SMILES	IC50 ([1]; Table A1) [nM]	IC50 [2] [nM]	IC50 ([1]; Table A4) [nM]
Cc1ccc(C(O)(C(N)=O)C(F)(F)F)cc1-c1cnc(N)c(C(=O)NC2CC3CCC2O3)n1 (single isomer, unassigned) [Example 30, 3-amino-6-(5-(3-amino-1,1,1-trifluoro-2-hydroxy-3-oxopropan-2-yl)-2-methylphenyl)-N-(7-oxabicyclo[2.2.1]heptan-2-yl)pyrazine-2-carboxamide]	< 100	< 100	–
Cc1ccc(C(O)(C(N)=O)C(F)(F)F)cc1-c1cnc(N)c(C(=O)NCC(O)C(F)(F)F)n1 (single isomer, unassigned) [Example 43B, 3-amino-6-(5-(3-amino-1,1,1-trifluoro-2-hydroxy-3-oxopropan-2-yl)-2-methylphenyl)-N-(3,3,3-trifluoro-2-hydroxypropyl)pyrazine-2-carboxamide]	< 100	< 100	–
Cc1ccc(C(O)(C(N)=O)C(F)(F)F)cc1-c1cnc(N)c(C(=O)NCC(C)(C)O)n1 (stereo not shown) [Example 1, 3-Amino-6-(5-(3-amino-1,1,1-trifluoro-2-hydroxy-3-oxopropan-2-yl)-2-methylphenyl)-N-(2-hydroxy-2-methylpropyl)pyrazine-2-carboxamide]	< 100	< 100	–
Cc1ccc(C(O)(C(N)=O)C(F)(F)F)cc1-c1cnc(N)c(C(=O)NC2CCOCC2)n1 (stereo not shown) [Example 2, 3-amino-6-(5-(3-amino-1,1,1-trifluoro-2-hydroxy-3-oxopropan-2-yl)-2-methylphenyl)-N-(tetrahydro-2H-pyran-4-yl)pyrazine-2-carboxamide trifluoroacetate]	< 100	< 100	–
Cc1ccc(C(O)(C(N)=O)C(F)(F)F)cc1-c1cnc(N)c(C(=O)NCC2(C#N)CC2)n1 (stereo not shown) [Example 4, 3-amino-6-(5-(3-amino-1,1,1-trifluoro-2-hydroxy-3-oxopropan-2-yl)-2-methylphenyl)-N-((1-cyanocyclopropyl)methyl)pyrazine-2-carboxamide trifluoroacetate]	< 100	< 100	–
Cc1ccc(C(O)(C(N)=O)C(F)(F)F)cc1-c1cnc(N)c(C(=O)NC(C)C)n1 (stereo not shown) [Example 5, 3-Amino-6-(5-(3-amino-1,1,1-trifluoro-2-hydroxy-3-oxopropan-2-yl)-2-methylphenyl)-N-isopropylpyrazine-2-carboxamide trifluoroacetate]	< 100	< 100	–
Cc1ccc(C(O)(C(N)=O)C(F)(F)F)cc1-c1cnc(N)c(C(=O)N[C@@H](C)CC#N)n1 (stereo partly drawn) [Example 8, 3-amino-6-(5-(3-amino-1,1,1-trifluoro-2-hydroxy-3-oxopropan-2-yl)-2-methylphenyl)-N-((S)-1-cyanopropan-2-yl)pyrazine-2-carboxamide trifluoroacetate]	< 100	< 100	–
